The record followed here is EP4786466A1, “QUINAZOLINE DERIVATIVE, SALT THEREOF, AND PHARMACEUTICAL COMPOSITION COMPRISING SAME AS ACTIVE INGREDIENT” (Korea Research Institute of Chemical Technology, priority 2023, dated 2025).

Like-named read-outs stand apart in the source and are kept apart here.

Series [1] in a line: in vitro. The conditions noted are these: human.
Method: (§1) MCF7 breast cancer cell lines and MCF10A normal breast cancer cell lines were treated with serial dilutions of the compounds of the present invention ranging from 1 µM to 15.63 nM for 72 hours. Cell viability was measured by the WST-8 assay (Cyto XTM cell viability assay kit; LPS solution, Daejeon, Korea) according to the manufacturer's instructions.
The target in series [2] is T1, Recombinant GST-TAG-MASTL (Homo sapiens, UniProt Q96GX5).
T1 construct: GST; purchased Thermo Fisher Scientific
T1 sequence (Q96GX5 1-879): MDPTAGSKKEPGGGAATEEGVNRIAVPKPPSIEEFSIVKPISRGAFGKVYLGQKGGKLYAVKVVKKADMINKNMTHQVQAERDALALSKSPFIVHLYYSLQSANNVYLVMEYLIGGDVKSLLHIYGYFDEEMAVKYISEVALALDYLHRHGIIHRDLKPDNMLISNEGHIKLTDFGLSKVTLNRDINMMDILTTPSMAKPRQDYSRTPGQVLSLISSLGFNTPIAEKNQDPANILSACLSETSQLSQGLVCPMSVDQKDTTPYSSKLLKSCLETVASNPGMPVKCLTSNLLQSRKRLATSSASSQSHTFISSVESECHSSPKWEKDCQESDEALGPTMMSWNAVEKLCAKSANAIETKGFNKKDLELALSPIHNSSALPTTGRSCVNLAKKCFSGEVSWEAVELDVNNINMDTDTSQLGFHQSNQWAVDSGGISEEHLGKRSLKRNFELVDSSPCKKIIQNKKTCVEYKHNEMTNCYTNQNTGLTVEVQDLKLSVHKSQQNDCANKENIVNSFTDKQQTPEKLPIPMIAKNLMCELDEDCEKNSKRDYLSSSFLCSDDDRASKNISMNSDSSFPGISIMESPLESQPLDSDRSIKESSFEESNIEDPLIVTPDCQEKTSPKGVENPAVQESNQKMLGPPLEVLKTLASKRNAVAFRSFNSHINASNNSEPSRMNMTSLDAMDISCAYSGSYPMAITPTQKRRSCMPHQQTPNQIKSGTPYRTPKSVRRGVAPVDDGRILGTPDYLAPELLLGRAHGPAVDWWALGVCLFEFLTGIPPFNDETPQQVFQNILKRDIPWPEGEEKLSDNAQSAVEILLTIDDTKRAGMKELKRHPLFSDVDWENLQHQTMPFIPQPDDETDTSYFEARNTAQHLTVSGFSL
As to the kind of experiment: HTRF-based kinase assay (HTRF KinEASE assay kit). It counts as biochemical. The conditions noted are these: for activity at 1 µM: read-out: MASTL activity (%) HTRF (1 µM); for activity at 10 µM: footnote b: concentration 10 µM. An excerpt: Recombinant GST-TAG-MASTL (Thermo Fisher Scientific, MA, USA) was used for HTRF-based kinase assays. The HTRF KinEASE assay kit (CisBio, MA, USA) was used according to the manufacturer's instructions.

For series [3], the system named is MCF7 breast cancer cell lines. Description: Cell viability analysis, WST-8 assay, MCF7. The conditions noted are these: for viability at 1 µM: read-out: Cell viability (%) WST-8, MCF7 (1 µM), compound 1 µM, 72 hours; for viability at 1.1 µM: read-out: Cell viability (%) WST-8, MCF7, footnote d: concentration 1.1 µM, 72 hours; for viability at 10 µM: read-out: Cell viability (%) WST-8, MCF7, footnote b: concentration 10 µM, 72 hours; for IC50: read-out: IC50 Cell viability (MCF7). Background: Formazan colour is commonly taken as a measure of viable cells.
Method: as §1

Series [4] relates to pENSA. Description: pENSA level by immunofluorescence (described method: in vitro kinase analysis with GST-tag-MASTL and His-tag-ENSA). The class given is cell-based. The conditions noted are these: for pENSA (%) Immunofluor ecense: footnote b: concentration 10 µM; for IC50: unit µM, read-out: IC50 pENSA. How it is done: Two recombinant GST-tag-MASTL (Thermo Fisher Scientific) and His-tag-ENSA (Sino Biological Inc., Beijing, China) were used for in vitro kinase analysis. In vitro kinase analysis was performed as described in the literature [Front Oncol 2020, 10, 571601, 39-202021-10-20doi:10.3389/fonc.2020.571601.].
Phosphorylated ENSA (pENSA), which is activated by phosphorylation by MASTL, can be utilized as a biomarker as it is expected that its activity will be inhibited along with the inhibition of MASTL. In the cell viability assay, MCF7 refers to a breast cancer cell line, and MCF10A refers to a normal breast […] cell line.

[5] abbreviates: read-out: MASTL activity (%) HTRF.
Where [6] appears, read: HTRF, read-out: IC50(nM) MASTL activity.

Take `c1ccc2c(Nc3cc(C4CC4)[nH]n3)nc(Nc3cnc4cccnn34)nc2c1` [compound 4dh, N^4-(5-cyclopropyl-1H-pyrazol-3-yl)-N^2-(imidazo[1,2-b]pyridazin-3-yl)quinazoline-2,4-diamine]: the viability at 1 µM in series [1] was found to be 111%; in series [3] (Homo sapiens, MCF7, 72 h) it was 116%. Further, the activity at 1 µM in series [2] (compound 1 µM) was determined as 88.7%.
Take `N#CCc1ccc(Nc2nc(Nc3cn[nH]c3)c3ccccc3n2)cc1` [compound 3f, 2-(4-((4-((1G-pyrazol-4-yl)amino)quinazolin-2-yl)amino)phenyl)acetonitrile]: the viability at 1.1 µM in series [1] (mcf10a cells) was determined as 98.3%; in series [3] (Homo sapiens, MCF7, 72 h), 117%. Moreover, in series [2], the activity at 1 µM worked out at 92.5%.
In the case of `c1ccc2c(Nc3cc(C4CC4)n[nH]3)nc(Nc3ccc4nc[nH]c4c3)nc2c1` [compound 4df, N^2-(1H-benzo[d]imidazol-5-yl)-N^4-(5-cyclopropyl-1H-pyrazol-3-yl)quinazoline-2,4-diamine], the viability at 1 µM amounted to 4.8% in series [1] and 78.4% in series [3] (Homo sapiens, MCF7, 72 h). For the same compound, the activity at 1 µM in series [2] (compound 1 µM) was determined as 31.8%.
As for `CC(C)(C)OC(=O)N1CC2C(C1)C2Nc1nc(Nc2cc(C3CC3)[nH]n2)c2ccccc2n1` (stereo not drawn) [4ag, sdqs-butyl 6-((4-((5-cyclopropyl-1G-pyrazol-3-yl)amino)quinazolin-2-yl)amino)-3-azabicyclo[3.1.0]hexane-3-carboxylate], the viability at 1 µM in series [1] (mcf10a cells) is 74.5%; in series [3] (Homo sapiens, MCF7, 72 h), 56.4%. Also, the activity at 1 µM in series [2] (compound 1 µM) was found to be 67.1%.
For `Cc1n[nH]c(C)c1Nc1nc(Nc2ccc(CC#N)cc2)nc2ccccc12` [compound 3d, 2-(4-((4-((3,5-dimethyl-1G-pyrazol-4-yl)amino)quinazolin-2-yl)amino)phenyl)acetonitrile], the viability at 1.1 µM in series [1] (mcf10a cells) was 101%; in series [3] (Homo sapiens, MCF7, 72 h), 132%. Besides, the activity at 1 µM in series [2] was found to be 93.7%.
Consider `Cc1nn(C)c(C)c1Nc1nc(Nc2ccc(CC#N)cc2)nc2ccccc12` [3c, 2-(4-((4-((1,3,5-trimethyl-1G-pyrazol-4-yl)amino)quinazolin-2-yl)amino)phenyl)acetonitrile], for which the viability at 1.1 µM is 115% in series [1] (mcf10a cells) and 110% in series [3] (Homo sapiens, MCF7, 72 h). Besides, the activity at 1 µM in series [2] was 123%.
Usually IC50 stands for the concentration needed to halve the response being measured. With `N#Cc1ccc(Nc2nc(Nc3cc(C4CC4)[nH]n3)c3ccccc3n2)cc1` [compound 4d, 4-((4-((5-cyclopropyl-1G-pyrazol-3-yl)amino)quinazolin-2-yl)amino)benzonitrile], the viability at 1.25 µM in series [1] (mcf10a cells) was 3.2%; in series [3] (Homo sapiens, MCF7, 72 h, read-out: Cell viability (%) WST-8, MCF7, footnote a: concentration 1.25 µM, 72 hours), 5.6%. In addition, the concentration for half-maximal inhibition (IC50) in series [2] was 625 nM. Also, the activity at 1.25 µM in series [2] (setting [5]) turned out to be 32.6%. Moreover, the “selectivity for breast cancer cells over normal cells in the cell viability assay” value in series [3] (MCF7 versus MCF10A) is “selectively inhibit only breast cancer cells”.
As for `c1ccc2c(Nc3cc(C4CC4)[nH]n3)nc(Nc3cnc4[nH]ccc4c3)nc2c1` [compound 4dg, N^4-(5-cyclopropyl-1H-pyrazol-3-yl)-N^2-(1H-pyrrolo[2,3-b]pyridin-5-yl)quinazoline-2,4-diamine], the viability at 1 µM in series [1] came to 12%; in series [3] (Homo sapiens, MCF7, 72 h), 49%. For the same compound, the activity at 1 µM in series [2] (compound 1 µM) is 37.9%.
The matching figures for `O=C1CSC(Nc2nc(Nc3ccccc3)nc3ccccc23)=N1` [compound 26b, 2-((2-(phenylamino)quinazolin-4-yl)amino)thiazol-4(5H)-one]: 98.8%, 95.8% and 112%.
`O=C(Nc1ccccc1)N1CC2CC1CN2c1nc(Nc2cn[nH]c2)c2ccccc2n1` (stereo not drawn) [compound 28b, 5-(4-((1G-pyrazol-4-yl)amino)quinazolin-2-yl)-M-phenyl-2,5-diazabicyclo[2.2.1]heptane-2-carboxamide]: the viability at 1 µM is 37% in series [1] (mcf10a cells) and 91.2% in series [3] (Homo sapiens, MCF7, 72 h).
As to `N#CCc1ccc(Nc2nc(Nc3nnc(C4CC4)s3)c3ccccc3n2)cc1` [compound 3l, 2-(4-((4-((5-cyclopropyl-1,3,4-thiadiazol-2-yl)amino)quinazolin-2-yl)amino)phenyl)acetonitrile], the viability at 1 µM in series [1] was 104%; in series [3] (Homo sapiens, MCF7, 72 h), 80.5%. For the same compound, the activity at 1 µM in series [2] (compound 1 µM) turned out to be 114%.
As to `Cc1cc(Nc2nc(N3CC4CC3CN4C(=O)Nc3ccccc3)nc3ccccc23)n[nH]1` (stereo not drawn) [compound 27b, 5-(4-((5-methyl-1G-pyrazol-3-yl)amino)quinazolin-2-yl)-M-phenyl-2,5-diazabicyclo[2.2.1]heptane-2-carboxamide], the viability at 1 µM was determined as 36.1% in series [1] (mcf10a cells) and 83.2% in series [3] (Homo sapiens, MCF7, 72 h).
On to `CC(C)NC(=O)N1CC2CC1CN2c1nc(Nc2cc(C3CC3)[nH]n2)c2ccccc2n1` (stereo not drawn) [compound 15b, 5-(4-((5-cyclopropyl-1G-pyrazol-3-yl)amino)quinazolin-2-yl)-M-isopropyl-2,5-diazabicyclo[2.2.1]heptane-2-carboxamide], for which the viability at 1 µM is 77.2% in series [1] (mcf10a cells) and 75.3% in series [3] (Homo sapiens, MCF7, 72 h).
Consider `Cc1cc(Nc2nc(N3CC4CC3CN4C(=O)NC(C)C)nc3ccccc23)n[nH]1` (stereo not drawn) [compound 27a, M-isopropyl-5-(4-((5-methyl-1G-pyrazol-3-yl)amino)quinazolin-2-yl)-2,5-diazabicyclo[2.2.1]heptane-2-carboxamide], for which the viability at 1 µM in series [1] (mcf10a cells) was 90.7%; in series [3] (Homo sapiens, MCF7, 72 h), 95.6%.
As to `O=S(=O)(c1c(F)cccc1F)N1CC2CC1CN2c1nc(Nc2cc(C3CC3)[nH]n2)c2ccccc2n1` (stereo not drawn) [compound 15p, M-(5-cyclopropyl-1G-pyrazol-3-yl)-2-(5-((2,6-difluorophenyl)sulfonyl)-2,5-diazabicyclo[2.2.1]heptan-2-yl)quinazolin-4-amine], in series [4], the “pENSA (%) Immunofluor ecense” value is recorded as 2.6^b %. For the same compound, the IC50 in series [4] came to 4.4 µM; in series [2] (setting [6]), 331 nM; in series [3] (Homo sapiens, MCF7, 72 h), 4100 nM. Besides, the activity at 10 µM in series [2] (setting [5]) was 180%. For the same compound, the viability at 10 µM in series [3] (Homo sapiens, MCF7, 72 h) came to 7.4%.
As to `O=S(=O)(C1CCCCC1)N1CC2CC1CN2c1nc(Nc2cc(C3CC3)[nH]n2)c2ccccc2n1` (stereo not drawn) [compound 15k, 2-(5-(cyclohexylsulfonyl)-2,5-diazabicyclo[2.2.1]heptan-2-yl)-M-(5-cyclopropyl-1G-pyrazol-3-yl)quinazolin-4-amine], the “pENSA (%) Immunofluor ecense” value in series [4] was 0.5^b %. In addition, the IC50 in series [4] was 3.5 µM; in series [2] (setting [6]), 152 nM; in series [3] (Homo sapiens, MCF7, 72 h), 4100 nM. Besides, the activity at 10 µM in series [2] (setting [5]) was 11.3%. Besides, in series [3] (Homo sapiens, MCF7, 72 h), the viability at 10 µM was determined as 12.7%.
With `CC(C)NC(=O)N1CC2CC1CN2c1nc(Nc2cn[nH]c2)c2ccccc2n1` (stereo not drawn) [compound 28a, 5-(4-((1G-pyrazol-4-yl)amino)quinazolin-2-yl)-M-isopropyl-2,5-diazabicyclo[2.2.1]heptane-2-carboxamide], the viability at 1.25 µM in series [1] (mcf10a cells) amounted to 93.9%. In series [3] (Homo sapiens, MCF7, 72 h), the viability at 1 µM turned out to be 99%.
Turning to `O=S(=O)(C1CC1)N1CC2CC1CN2c1nc(Nc2cc(C3CC3)[nH]n2)c2ccccc2n1` (stereo not drawn) [compound 15i, M-(5-cyclopropyl-1G-pyrazol-3-yl)-2-(5-(cyclopropylsulfonyl)-2,5-diazabicyclo[2.2.1]heptan-2-yl)quinazolin-4-amine], in series [4], the “pENSA (%) Immunofluor ecense” value is listed as 0.2^b % and the half-maximal inhibitory concentration (IC50) was 2.1 µM. The IC50 in series [2] (setting [6]) is 310 nM. For the same compound, the activity at 10 µM in series [2] (setting [5]) is 15.5%. For the same compound, in series [3] (Homo sapiens, MCF7, 72 h), the viability at 10 µM was 5.2% and the IC50 is 2000 nM.
